Experimental data reported in US9272987B2, “Diazeniumdiolate cyclohexyl derivatives” (Merck Sharp & Dohme Corp., priority 2011, dated 2016).

System: Male beagle dogs
Assay: canine telemetry protocol, blood pressure reduction efficacy
Type: in vivo
Conditions: change from baseline, 3 mg/kg oral gavage; for ΔPP (mmHg) 1-6 h / ΔPP (mmHg) 6-12 h / ΔPP (mmHg) 12-18 h: pulse pressure; for ΔSBP (mmHg) 1-6 h / ΔSBP (mmHg) 6-12 h / ΔSBP (mmHg) 12-18 h: systolic blood pressure
Protocol: Compounds of the invention were evaluated for blood pressure reduction efficacy using the following canine telemetry protocol described below.
Male beagle dogs (approximately 1-3 years old) with a body weight of between 10 and 16 kg were surgically implanted with DSI radiotelemetry devices (model: TL11M2-D70-PCT). Briefly, under an inhalant anesthesia, isoflurane/oxygen mixture (1-3.5%/to effect), the body of the telemetry device was positioned and secured intra-abdominally. Subsequently, the arterial catheter of the telemetry device was passed subcutaneously to the inguinal area and introduced into the femoral artery and advanced to the level of the descending aorta. The catheter was secured with 2-0 silk ligatures. The muscle and underlying fascia was closed over the catheter using absorbable suture and the skin was closed using non-absorbable suture. The animals were allowed a minimum recovery period of 2 weeks between surgery and the evaluation of test compounds.
Compound evaluation consisted of a 3 day paradigm at a 3 mg/kg dose. On the first day, no compounds were administered during a 24 hour period of baseline data collection. Blood pressure and heart rate data were collected continuously for one minute periods at 10 minute intervals. On the days of compound administration half the animals received test article with the other half receiving the vehicle used for compound formulation. All test materials were administered by oral gavage in a volume of 1 mL/kg. Data are expressed either as raw values (mm Hg or beats per minute) or as the change from baseline (average value for about 12 hours in low activity period prior to dosing). Change is SBP (systolic blood pressure) and PP (pulse pressure) over time is shown below: […]

| Molecule | ΔPP (mmHg) 1-6 h [mmHg] | ΔPP (mmHg) 6-12 h [mmHg] | ΔPP (mmHg) 12-18 h [mmHg] | ΔSBP (mmHg) 1-6 h [mmHg] | ΔSBP (mmHg) 6-12 h [mmHg] | ΔSBP (mmHg) 12-18 h [mmHg] |
| --- | --- | --- | --- | --- | --- | --- |
| CN(/[N+]([O-])=N/OC1CCC(F)(F)CC1)C(C)(C)C [Example 9, O^2-(4,4-difluorocyclohexyl) 1-(N-tert-butyl-N-methylamino)diazen-1-ium-1,2-diolate] | −7 | −8 | −8 | −8 | −12 | −13 |
| O^2-(trans-4-hydroxy-4-phenylcyclohexyl) 1-(N-tert-butyl-N-methylamino)diazen-1-ium-1,2-diolate [Example 19] | −7 | −9 | −9 | −11 | −12 | −15 |
| CN(/[N+]([O-])=N/OC1CCCCC1)C(C)(C)C [Example 2] | −9 | −11 | −12 | −11 | −9 | −9 |
| O^2-(trans-4-phenylcyclohexyl) 1-(N-tert-butyl-N-methylamino)diazen-1-ium-1,2-diolate [Example 33] | −7 | −12 | −11 | −9 | −15 | −9 |
